Read-outs that look alike come from different tables or passages of the source.
Biological target: T1, F508delCFTR (Homo sapiens, UniProt P13569, DEL508-508)
T1 construct: expressed in transfected cells; host or cells: CFBE41o- (human lung derived epithelial cell line), doxycycline-inducible expression
Assay: Cell Surface Expression-Horse Radish Peroxidase (CSE-HRP) assay
Assay type: cell-based
Settings: CFBE41o-F508delCFTR-HRP cells; for Maximum % activity (with co-corrector): with co-corrector (2 μM); for Maximum % activity (with co-corrector) / Maximum % activity (without co-corrector): normalized to on-plate positive control, highest concentration 20 μM
Procedure, shortened: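 CFBE41o- cells expressed F508delCFTR with HRP in the fourth exofacial loop, induced by 0.5 μg/mL doxycycline for 72 h at 37 °C. Compounds alone or with 2 μM co-corrector ran 18–24 h at 33 °C, 8-point 3-fold from 20 μM. Washed-cell luminol luminescence was normalized to DMSO and positive control, fitted sigmoidally for EC50 (three plates).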

[1] = test compound without co-corrector, 18-24 hours at 33° C., read-out: EC50 (without co-corrector)
[2] = with co-corrector (2 μM of 3-[(2R,4R)-4-({[1-(2,2-difluoro-1,3-benzodioxol-5-yl)cyclopropyl]carbonyl}amino)-7-methoxy-3,4-dihydro-2H-chromen-2-yl]benzoic acid), read-out: EC50 (with co-corrector)

T1 sequence (P13569 with tags, fused parts or gaps DEL508-508): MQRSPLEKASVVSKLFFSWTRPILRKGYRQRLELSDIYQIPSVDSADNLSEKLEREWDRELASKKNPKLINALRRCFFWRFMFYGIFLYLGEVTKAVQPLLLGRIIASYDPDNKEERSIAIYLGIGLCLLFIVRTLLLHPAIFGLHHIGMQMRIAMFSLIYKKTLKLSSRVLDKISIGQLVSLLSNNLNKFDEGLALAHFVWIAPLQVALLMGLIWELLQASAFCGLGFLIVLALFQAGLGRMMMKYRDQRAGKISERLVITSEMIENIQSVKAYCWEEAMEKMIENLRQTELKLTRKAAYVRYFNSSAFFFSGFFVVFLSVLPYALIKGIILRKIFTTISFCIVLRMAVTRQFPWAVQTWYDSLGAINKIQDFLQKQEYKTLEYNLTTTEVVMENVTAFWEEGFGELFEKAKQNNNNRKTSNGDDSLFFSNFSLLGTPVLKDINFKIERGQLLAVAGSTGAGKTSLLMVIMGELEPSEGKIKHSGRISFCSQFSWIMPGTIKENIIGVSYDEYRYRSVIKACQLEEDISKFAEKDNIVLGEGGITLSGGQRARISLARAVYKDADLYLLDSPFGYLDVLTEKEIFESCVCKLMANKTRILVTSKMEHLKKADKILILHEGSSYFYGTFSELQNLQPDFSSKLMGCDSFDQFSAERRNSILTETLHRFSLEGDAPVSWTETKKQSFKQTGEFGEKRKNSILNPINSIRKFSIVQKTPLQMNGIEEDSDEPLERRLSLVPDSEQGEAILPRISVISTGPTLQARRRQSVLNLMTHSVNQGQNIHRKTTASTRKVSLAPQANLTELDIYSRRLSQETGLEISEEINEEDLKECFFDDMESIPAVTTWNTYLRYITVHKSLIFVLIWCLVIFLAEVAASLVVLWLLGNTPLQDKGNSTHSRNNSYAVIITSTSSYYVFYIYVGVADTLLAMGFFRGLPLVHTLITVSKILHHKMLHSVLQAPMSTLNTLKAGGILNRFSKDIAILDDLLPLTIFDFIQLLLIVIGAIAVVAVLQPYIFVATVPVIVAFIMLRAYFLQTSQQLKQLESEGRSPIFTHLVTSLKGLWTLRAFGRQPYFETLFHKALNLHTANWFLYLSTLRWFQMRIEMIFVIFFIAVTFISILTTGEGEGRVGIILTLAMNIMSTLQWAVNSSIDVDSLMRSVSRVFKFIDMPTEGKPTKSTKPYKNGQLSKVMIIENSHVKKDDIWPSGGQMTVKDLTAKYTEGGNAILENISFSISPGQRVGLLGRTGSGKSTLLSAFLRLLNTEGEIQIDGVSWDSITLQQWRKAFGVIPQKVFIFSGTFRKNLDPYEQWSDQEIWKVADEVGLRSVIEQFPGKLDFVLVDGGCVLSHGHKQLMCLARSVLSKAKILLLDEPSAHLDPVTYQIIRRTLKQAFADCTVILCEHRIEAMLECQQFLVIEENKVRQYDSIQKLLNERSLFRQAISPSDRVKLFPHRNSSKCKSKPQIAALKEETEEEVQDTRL

COc1ccc(Br)cc1CO[C@H]1[C@H](C(C)(C)C)[C@@H](C(=O)O)N(C(=O)[C@@H]2CCC[C@@H](OC)C2)[C@H]1c1ccccc1 [Example 37, (2S,3R,4S,5S)-4-[(5-bromo-2-methoxyphenyl)methoxy]-3-tert-butyl-1-[(1R,3R)-3-methoxycyclohexane-1-carbonyl]-5-phenylpyrrolidine-2-carboxylic acid]
EC50 [1]: 1000 to 10000 nM | EC50 [2]: 1000 to 10000 nM | Maximum % activity (with co-corrector): +++ (≥350) | Maximum % activity (without co-corrector): +++ (≥200)

COc1ccc(-c2ccccc2)cc1CO[C@H]1[C@H](C(C)(C)C)[C@@H](C(=O)O)N(C(=O)OC(C)C)[C@H]1c1ccccc1 [Example 38, (2S,3R,4S,5S)-3-tert-butyl-4-[(4-methoxy[1,1′-biphenyl]-3-yl)methoxy]-5-phenyl-1-{[(propan-2-yl)oxy]carbonyl}pyrrolidine-2-carboxylic acid]
EC50 [1]: 1000 to 10000 nM | EC50 [2]: 1000 to 10000 nM | Maximum % activity (with co-corrector): +++ (≥350) | Maximum % activity (without co-corrector): ++ (≥100 and <200)

COc1ccc(-c2ccccc2)cc1CO[C@H]1[C@H](C(C)(C)C)[C@@H](C(=O)O)N(C(=O)[C@@H]2CCC[C@@H](OC)C2)[C@H]1c1ccccc1 [Example 39, (2S,3R,4S,5S)-3-tert-butyl-4-[(4-methoxy[1,1′-biphenyl]-3-yl)methoxy]-1-[(1R,3R)-3-methoxycyclohexane-1-carbonyl]-5-phenylpyrrolidine-2-carboxylic acid]
EC50 [1]: 1000 to 10000 nM | EC50 [2]: 1000 to 10000 nM | Maximum % activity (with co-corrector): +++ (≥350) | Maximum % activity (without co-corrector): +++ (≥200)

COc1ncc(Br)cc1CO[C@H]1[C@H](C(C)(C)C)[C@@H](C(=O)O)N(C(=O)OC(C)C)[C@H]1c1ccccc1 [Example 40, (2S,3R,4S,5S)-4-[(5-bromo-2-methoxypyridin-3-yl)methoxy]-3-tert-butyl-5-phenyl-1-{[(propan-2-yl)oxy]carbonyl}pyrrolidine-2-carboxylic acid]
EC50 [1]: 1000 to 10000 nM | EC50 [2]: 1000 to 10000 nM | Maximum % activity (with co-corrector): +++ (≥350) | Maximum % activity (without co-corrector): ++ (≥100 and <200)

COc1ncc(C(F)(F)F)cc1CO[C@H]1[C@H](C(C)(C)C)[C@@H](C(=O)O)N(C(=O)C2CCCCC2)[C@H]1c1ccccc1 [Example 41, (2S,3R,4S,5S)-3-tert-butyl-1-(cyclohexanecarbonyl)-4-{[2-methoxy-5-(trifluoromethyl)pyridin-3-yl]methoxy}-5-phenylpyrrolidine-2-carboxylic acid]
EC50 [1]: < 1000 nM | EC50 [2]: < 1000 nM | Maximum % activity (with co-corrector): +++ (≥350) | Maximum % activity (without co-corrector): ++ (≥100 and <200)

COc1ncc(-c2ccccc2)cc1CO[C@H]1[C@H](C(C)(C)C)[C@@H](C(=O)O)N(C(=O)OC(C)C)[C@H]1c1ccccc1 [Example 42, (2S,3R,4S,5S)-3-tert-butyl-4-[(2-methoxy-5-phenylpyridin-3-yl)methoxy]-5-phenyl-1-{[(propan-2-yl)oxy]carbonyl}pyrrolidine-2-carboxylic acid]
EC50 [1]: 1000 to 10000 nM | EC50 [2]: 1000 to 10000 nM | Maximum % activity (with co-corrector): +++ (≥350) | Maximum % activity (without co-corrector): + (<100)

COc1ncc(C2CCCCC2)cc1CO[C@H]1[C@H](C(C)(C)C)[C@@H](C(=O)O)N(C(=O)OC(C)C)[C@H]1c1ccccc1 [Example 43, (2S,3R,4S,5S)-3-tert-butyl-4-[(5-cyclohexyl-2-methoxypyridin-3-yl)methoxy]-5-phenyl-1-{[(propan-2-yl)oxy]carbonyl}pyrrolidine-2-carboxylic acid]
EC50 [1]: 1000 to 10000 nM | EC50 [2]: 1000 to 10000 nM | Maximum % activity (with co-corrector): +++ (≥350) | Maximum % activity (without co-corrector): + (<100)

COc1ncc(C2CCCC2)cc1CO[C@H]1[C@H](C(C)(C)C)[C@@H](C(=O)O)N(C(=O)OC(C)C)[C@H]1c1ccccc1 [Example 44, (2S,3R,4S,5S)-3-tert-butyl-4-[(5-cyclopentyl-2-methoxypyridin-3-yl)methoxy]-5-phenyl-1-{[(propan-2-yl)oxy]carbonyl}pyrrolidine-2-carboxylic acid]
EC50 [1]: 1000 to 10000 nM | EC50 [2]: 1000 to 10000 nM | Maximum % activity (with co-corrector): +++ (≥350) | Maximum % activity (without co-corrector): + (<100)

Source: US10399940B2, “Substituted pyrrolidines and methods of use” (AbbVie S.à.r.l., priority 2016, dated 2019)
